Measured values from patent publication US5015470A, “Cosmetic composition” (priority 1986, dated 1991).
Read-outs that look alike come from different tables or passages of the source. Each block holds one compound with its values, some of them ahead of it.

How the values were obtained:
[1] = test system: hair growth (skin of shaved rabbits); conditions: repeated injection into skin of shaved rabbits; cited from earlier work
β-glucuronidase [2] = biological target: T1, β-glucuronidase (Homo sapiens, UniProt P08236); test: Inhibition of β-glucuronidase activity (nitrophenyl glucuronide substrate, method of Dingle); format: biochemical; conditions: for inhibition of γ-glucuronidase activity (so in the source), in words: statement referring to experiments described later
T1 sequence (P08236 23-651): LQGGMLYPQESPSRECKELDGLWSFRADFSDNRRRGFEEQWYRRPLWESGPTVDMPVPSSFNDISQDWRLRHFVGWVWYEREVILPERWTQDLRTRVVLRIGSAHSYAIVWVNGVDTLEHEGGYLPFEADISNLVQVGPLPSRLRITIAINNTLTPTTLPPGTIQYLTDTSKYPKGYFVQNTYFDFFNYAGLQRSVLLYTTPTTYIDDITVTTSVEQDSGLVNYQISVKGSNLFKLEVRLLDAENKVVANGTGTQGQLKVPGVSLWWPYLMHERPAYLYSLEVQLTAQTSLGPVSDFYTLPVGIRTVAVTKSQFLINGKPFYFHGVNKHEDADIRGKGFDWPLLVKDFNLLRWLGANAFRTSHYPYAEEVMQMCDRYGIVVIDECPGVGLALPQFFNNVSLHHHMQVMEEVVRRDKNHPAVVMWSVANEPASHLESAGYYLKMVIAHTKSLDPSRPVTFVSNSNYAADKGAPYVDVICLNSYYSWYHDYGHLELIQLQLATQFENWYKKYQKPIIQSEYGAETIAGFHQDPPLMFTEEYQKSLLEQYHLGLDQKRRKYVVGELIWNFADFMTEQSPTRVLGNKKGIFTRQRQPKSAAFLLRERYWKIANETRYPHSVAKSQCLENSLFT
Description: In each of the assays referred to herein, the chemical inhibitor was tested at a pH close to the optimum pH value of the relevant enzyme, and under conditions of saturating substrate concentration, to ensure that Vmax was obtained in the controls. […] The activity of each of these four exoglycosidases was measured using a method described in "Lysosomes, A Laboratory Handbook", edited by […]., Second Edition, (1977) at page 118. […] [Ibid., page 118] as described herein. […] [Ibid., page 118]. The results when the acid or the lactone were incubated with a mixture of this enzyme and the nitrophenyl glucuronide substrate were as follow: […]

[3] = test system: hair growth (clipped patch of skin, upper back of male rats); test: Measurement of hair growth using the rat model (cumulative clipped hair weight, topical application); format: in vivo
Description: The effect of compounds on hair growth was assessed using male rats as an animal model as follows. In each of the comparisons reported below, 10 rats were used.
A small patch of normal skin (4cm ×4cm) on the upper back of each rat was clipped at the start of the experiment and a hair growth stimulant composition (or a control) applied twice daily topically to the clipped area. Hair was clipped from the area of the patch twice weekly, collected and weighed at each time point, and cumulative hair weight calculated. […] A positive response, ie. an increase of at least 10% by weight of hair, compared with a control, indicates the potential of the test substance to prevent hair loss and/or reverse baldness in human subjects.
In this example, the effect of topical application of D-glucaro-1,4-lactone, an inhibitor of β-glucuronidaseis shown. The test solution in this experiment contained approximately 7% (w/v) of the glucarolactone in the form of an equilibrium mixture prepared from boiled calcium glucarate. The vehicle was 33% (v/v) ethanol containing 50mM Na citrate at pH 4.2. Test or control solutions (0.3ml) were applied twice-daily to the clipped site; the hair growth results are shown below in Table 2.
This effect is illustrated in Table 3 below, in which the vehicle was 33% v/v ethanol in 50mM sodium citrate, pH4.2:
In a further experiment, glucarolactone was tested in the presence of an activity enhancer, 1-methylpyrrolidone. Again, a significant increase in hair weight was obtained, as shown below in Table 4, in which the vehicle was 33% v/v aqueous ethanol containing 50mM Na citrate buffer pH4.2 and 10% w/v 1-methylpyrrolidone. […]

[4] = cited from earlier work
β-glucuronidase [5] = biological target: T1, β-glucuronidase; conditions: Levvy and Snaith (1972); cited from earlier work
hair growth = conditions: 1% solution, daily application for six months; cited from earlier work
α-glucuronidase = conditions: Levvy and Snaith (1972); cited from earlier work
[6] = read-out: percentage inhibition of a 1mM concentration, 1 mM, worked out from 1.03 or 1.14 mM
[7] = Table 3, 7% glucarolactone, 0.2% minoxidil, or both, 45 days
[8] = Table 3, 7% glucarolactone, 0.2% minoxidil, or both, vehicle 33% v/v ethanol in 50mM sodium citrate, pH4.2, vehicle control 427.2 ± 58.7

Compound: dermatan sulphate
initiation of the hair growth cycle with stimulation of hair growth, in words [1]: also active in this respect, but to a lesser extent

inhibition at 200 µg/mL (β-glucuronidase [2]; 0.2 mg/ml (1.14 mM)): 51%
enzyme inhibition in words (weak inhibitor) (β-glucuronidase [2]; 1 mM, β-glucuronidase): weak enzyme inhibitors
inhibition at 1000 µM (β-glucuronidase [2]; [6]): 44.7%
inhibition of γ-glucuronidase activity (so in the source), in words (β-glucuronidase [2]): weak inhibitors
Compound: O=C[C@H](O)[C@H]1OC(=O)[C@@H](O)[C@H]1O [glucurono-6,3-lactone, D-Glucurono-6,3-lactone]

Compound: Nc1cc(N2CCCCC2)nc(N)[n+]1[O-] [minoxidil, reference compound]
increase in hair growth ([3]; 2% (w/v) minoxidil vs vehicle, 45 days): 55%
Mean Cumulative hair weight (mg) ± sd, after 45 days ([3]; Table 1, 2% (w/v) topical twice daily, vehicle 70% ethanol, 20% water, 10% propylene glycol, vehicle control 387.3 ± 75.9): 599.2 ± 85.1 mg
Increase in hair growth (%) (Test vs control) [3, 7]: 9%
Mean Cumulative hair weight (mg) ± sd, after 45 days [3, 8]: 465.8 ± 48.8 mg
inhibition at 50 µg/mL (β-glucuronidase [2]; 0.05 mg/ml (0.24 mM)): 2%
inhibition at 400 µg/mL (β-glucuronidase [2]; 0.4 mg/ml (1.9 mM)): 12%
inhibition at 800 µg/mL (β-glucuronidase [2]; 0.8 mg/ml (3.8 mM)): 23%
enzyme inhibition in words (weak inhibitor) (β-glucuronidase [2]; 1 mM, β-glucuronidase): weak enzyme inhibitor
inhibition at 1000 µM (β-glucuronidase [2]; 1 mM, β-glucuronidase, read-out: enzyme inhibition in words (weak inhibitor)): 5 to 50%
inhibition at 1000 µM (β-glucuronidase [2]; read-out: percent inhibition of a 1mM concentration): 6%
side effects of orally administered minoxidil ([4]; oral): fluid retention, tachycardia, dyspnea, gynecomastia, fatigue, nausea and cardiotoxicity
side effects following topical application ([4]; topical): certain side effects have been experienced following topical application of minoxidil

inhibition at 200 µg/mL (β-glucuronidase [2]; 0.2 mg/ml (1.03 mM)): 20%
enzyme inhibition in words (weak inhibitor) (β-glucuronidase [2]; 1 mM, β-glucuronidase): weak enzyme inhibitors
inhibition at 1000 µM (β-glucuronidase [2]; [6]): 19.4%
inhibition of γ-glucuronidase activity (so in the source), in words (β-glucuronidase [2]): weak inhibitors
Compound: O=C[C@H](O)[C@@H](O)[C@H](O)[C@H](O)C(=O)O [glucuronic acid, D-glucuronic acid]
inhibition of β-glucuronidase, in words (β-glucuronidase [5]): feebly inhibited
regrowth of hair, in words (hair growth): regrowth of hair
inhibition of α-glucuronidase, in words (α-glucuronidase): feebly inhibited

Compound: chondroitin-6-sulphate
initiation of the hair growth cycle with stimulation of hair growth, in words [1]: also active in this respect, but to a lesser extent

Compound: heparan sulphate
initiation of the hair growth cycle with stimulation of hair growth, in words [1]: particularly active

Compound: zinc gluconate
increase in hair growth ([3]; 2% (w/v) zinc gluconate, 45 days (Table 6)): 16%
Mean Cumulative hair weight (mg) ± sd, after 45 days ([3]; Table 6, 2% (w/v), vehicle 20% aqueous ethanol, vehicle control 397.8 ± 56.3): 460.9 ± 45.7 mg

Compound: O=C(O)[C@@H](O)[C@H]1OC(=O)[C@H](O)[C@H]1O [glucarolactone, D-glucaro-1,4-lactone]
stimulation of hair growth (increase) ([3]; 7% glucarolactone vs vehicle, Table 2): 13%
increase in hair growth ([3]; 7% glucarolactone with 0.1% w/v Triton X-100, 43 days (Table 5)): 39%
increase in hair growth ([3]; 7% glucarolactone with 10% w/v 1-methylpyrrolidone, 46 days (Table 4)): 15%
Mean Cumulative hair weight (mg) ± sd, after 45 days ([3]; Table 2, approx. 7% (w/v), 0.3 ml twice daily, vehicle 33% (v/v) ethanol, 50mM Na citrate pH 4.2, vehicle control 427.2 ± 58.7): 482.7 ± 58.4 mg
Increase in hair growth (%) (Test vs control) [3, 7]: 13%
Mean Cumulative hair weight (mg) ± sd, after 45 days [3, 8]: 482.7 ± 58.4 mg
Mean Cumulative Hair Weight (mg) ± sd, after 46 days ([3]; Table 4, 7%, vehicle 33% v/v aqueous ethanol, 50mM Na citrate pH4.2, 10% w/v 1-methylpyrrolidone, vehicle control 611.1 ± 48.1): 706.2 ± 86.6 mg
Mean Cumulative Hair Weight (mg) ± sd, after 43 days ([3]; Table 5, 7%, vehicle 20% v/v ethanol, 50mM sodium citrate pH4.2, 0.1% w/v Triton X-100, vehicle control 412.3 ± 57.5): 573.3 ± 82.5 mg
effect on hair growth in combination with a low concentration of minoxidil ([3]; result in words): synergistic effect on hair growth in combination with a low concentration of minoxidil
effect on onset of anagen / hair cycle ([3]; result in words): consistently found to advance the onset of anagen, thus reducing the amount of time spent in the resting stage of hair cycle
